Data reported in US7858644B2, “EP4 receptor antagonists” (Asterand UK Limited, priority 2003, dated 2010).

How the values were obtained:
human EP4 receptor = molecular target: T1, human EP4 receptor (Homo sapiens, UniProt P35408); test: Binding ability to human EP4 receptor ([3H]PGE2 displacement); settings: read-out: pKi EP4 (converted)
T1 construct: expressed in transfected cells
Experimental: (§1) Membranes were prepared from cells stably transfected with human EP receptor cDNA. In brief, cells were cultured to confluency, scraped from culture flasks, and centrifuged (800 g, 8 minutes, 4° C.). Cells were twice washed in ice cold homogenisation buffer containing 10 mMTris-HCl, 1 mM EDTA. 2Na, 250 mM sucrose, 1 mM PMSF, 0.3 mM indomethacin, pH 7.4, homogenised and re-centrifuged as before. The supernatant was stored on ice and pellets re-homogenised and re-spun. Supernatants were pooled and centrifuged at 40000 g, 10 minutes, 4° C. Resultant membrane pellets were stored at −80° C. until use.
(§2) Incubations were performed at suitable temperatures and for suitable times to allow equilibrium to be reached. Non-specific binding was determined in the presence of 10 uM PGE2. Bound and free radiolabel was separated by vacuum manifold filtration using appropriate wash buffers, and bound radiolabel was determined by scintillation counting. Constituents of each of the buffers are included in table 1 below.
(§3) This approach follows that set out in Kenakin, T. P., Pharmacologic analysis of drug receptor interaction. Raven Press, New York, 2nd edition.

human EP3 receptor = molecular target: T2, human EP3 receptor (Homo sapiens, UniProt P43115); test: Binding ability to human EP3 receptor ([3H]PGE2 displacement); settings: membranes from cells stably transfected with human EP receptor cDNA; [3H]PGE2 2.5 nM; Cheng-Prusoff from IC50; read-out: pKi EP3 (converted)
T2 construct: expressed in transfected cells
T2 sequence (P43115 1-390): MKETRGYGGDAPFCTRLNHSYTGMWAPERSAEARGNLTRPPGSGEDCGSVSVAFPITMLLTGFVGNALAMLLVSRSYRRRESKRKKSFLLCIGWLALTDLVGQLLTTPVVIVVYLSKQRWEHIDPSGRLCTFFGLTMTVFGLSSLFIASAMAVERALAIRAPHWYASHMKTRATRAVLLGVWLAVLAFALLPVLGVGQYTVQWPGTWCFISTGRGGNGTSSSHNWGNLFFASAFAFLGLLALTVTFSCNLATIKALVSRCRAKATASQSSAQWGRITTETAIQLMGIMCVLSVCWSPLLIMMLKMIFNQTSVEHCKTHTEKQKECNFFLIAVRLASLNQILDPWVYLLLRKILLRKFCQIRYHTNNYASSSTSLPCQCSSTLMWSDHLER
Experimental: as §1
as §2, with “For assay, membranes expressing human EP4, EP3, EP2 or EP1 receptors were incubated in Millipore (MHVBN45) plates containing assay buffer, radiolabelled [^3H]PGE2 and 0.1 to 10 000 nM concentrations of compounds. Incubations” for “Incubations”
as §3

human EP2 receptor = molecular target: T3, human EP2 receptor (Homo sapiens, UniProt P43116); test: Binding ability to human EP2 receptor ([3H]PGE2 displacement); settings: read-out: pKi EP2 (converted)
T3 construct: expressed in transfected cells
Experimental: as §1
as §2, with “For assay, membranes expressing human EP4, EP3, EP2 or EP1 receptors were incubated in Millipore (MHVBN45) plates containing assay buffer, radiolabelled [^3H]PGE2 and 0.1 to 10 000 nM concentrations of compounds. Incubations” for “Incubations”
as §3

T3 sequence (P43116 whole entry): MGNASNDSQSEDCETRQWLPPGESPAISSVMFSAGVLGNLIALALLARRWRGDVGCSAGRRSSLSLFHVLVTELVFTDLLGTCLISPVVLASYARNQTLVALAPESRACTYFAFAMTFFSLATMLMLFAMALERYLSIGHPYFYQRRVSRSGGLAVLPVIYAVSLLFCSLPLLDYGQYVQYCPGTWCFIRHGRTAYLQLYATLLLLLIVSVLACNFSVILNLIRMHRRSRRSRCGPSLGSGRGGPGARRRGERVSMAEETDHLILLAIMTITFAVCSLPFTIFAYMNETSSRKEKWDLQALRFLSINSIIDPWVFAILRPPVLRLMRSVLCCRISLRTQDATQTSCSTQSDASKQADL
T1 sequence (P35408 whole entry): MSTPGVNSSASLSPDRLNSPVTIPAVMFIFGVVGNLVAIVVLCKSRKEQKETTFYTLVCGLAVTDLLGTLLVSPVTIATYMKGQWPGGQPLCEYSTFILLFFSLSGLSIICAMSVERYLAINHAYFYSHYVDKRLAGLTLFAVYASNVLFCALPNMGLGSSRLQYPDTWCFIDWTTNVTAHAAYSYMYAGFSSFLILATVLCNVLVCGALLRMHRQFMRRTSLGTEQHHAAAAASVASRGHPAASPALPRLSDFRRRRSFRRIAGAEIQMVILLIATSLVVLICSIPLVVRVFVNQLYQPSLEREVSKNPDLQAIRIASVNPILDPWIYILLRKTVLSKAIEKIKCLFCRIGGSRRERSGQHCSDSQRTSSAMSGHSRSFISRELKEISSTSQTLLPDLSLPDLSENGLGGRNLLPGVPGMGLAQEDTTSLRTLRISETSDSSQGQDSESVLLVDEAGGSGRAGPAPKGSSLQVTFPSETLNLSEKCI

Compound	Ki (human EP4 receptor)	Ki (human EP3 receptor)	Ki (human EP2 receptor)
Cc1oc(C(=O)O)cc1COc1ccc2c(c1)oc1ccccc12 [Compound 50, 4-(Dibenzofuran-3-yloxymethyl)-5-methyl-furan-2-carboxylic acid]	< 3.16 µM	> 10 µM	> 3.16 µM
COc1ccc(-c2ccc(OCc3cc(C(=O)NS(=O)(=O)c4ccccc4)oc3C)cc2)[n+]([O-])c1 [Compound 135, N-{4-[4-(5-Methoxy-1-oxy-pyridin-2-yl)-phenoxymethyl]-5-methyl-furan-2-carbonyl}-benzenesulphonamide]	< 10 µM	> 10 µM	> 10 µM
Cc1oc(S(=O)(=O)NC(=O)c2cccs2)cc1COc1ccc(-c2ccccc2)cc1 [Compound 64, 4-(Biphenyl-4-yloxymethyl)-5-methyl-furan-2-sulphonic acid (thiophene-2-carbonyl)-amide]	< 0.1 µM	> 10 µM	> 10 µM
COc1ccc(-c2ccc(OCc3cc(C(=O)O)oc3C(C)C)cc2)cc1 [Compound 86, 5-Isopropyl-4-(4′-methoxy-biphenyl-4-yloxymethyl)-furan-2-carboxylic acid]	< 1 µM	> 10 µM	> 10 µM
Cc1ccccc1S(=O)(=O)NC(=O)c1cc(C[S+]([O-])c2ccc(-c3ccc(OC(F)F)cc3)cc2)c(C)o1 (stereo not drawn) [Compound 156, N-[4-(4′-Difluoromethoxy-biphenyl-4-ylsulphinylmethyl)-5-methyl-furan-2-carbonyl]-2-methyl-benzenesulphonamide]	< 10 µM	> 10 µM	> 10 µM
CC(C)c1oc(C(=O)O)cc1COc1ccc2c(c1)oc1ccccc12 [Compound 87, 4-(Dibenzofuran-3-yloxymethyl)-5-isopropyl-furan-2-carboxylic acid]	< 3.16 µM	> 10 µM	> 10 µM
Cc1oc(C(=O)O)cc1CCOc1ccc2c(c1)oc1ccccc12 [Compound 74, 4-[2-(Dibenzofuran-3-yloxy)-ethyl]-5-methyl-furan-2-carboxylic acid]	< 3.16 µM	> 10 µM	> 10 µM
Cc1oc(C(=O)O)cc1COc1ccc(-c2ccc(F)cc2)cc1 [Compound 118, 4-(4′-Fluoro-biphenyl-4-yloxymethyl)-5-methyl-furan-2-carboxylic acid]	< 1 µM	> 10 µM	> 10 µM
O=C(O)c1cc(COc2ccc3oc4ccccc4c3c2)c(C(F)(F)F)o1 [Compound 92, 4-(Dibenzofuran-2-yloxymethyl)-5-trifluoromethyl-furan-2-carboxylic acid]	< 3.16 µM	> 10 µM	> 10 µM
Cc1oc(C(=O)O)cc1COc1ccc(-c2ccccc2C(F)(F)F)cc1 [Compound 102, 5-Methyl-4-(2′-trifluoromethyl-biphenyl-4-yloxymethyl)-furan-2-carboxylic acid]	< 3.16 µM	> 10 µM	> 3.16 µM
Cc1ccccc1S(=O)(=O)NC(=O)c1cc(CN(C)c2ccc(-c3ccc(OC(F)F)cc3)cc2)c(C)o1 [Compound 177, N-(4-{[(4′-Difluoromethoxy-biphenyl-4-yl)-methyl-amino]-methyl}-5-methyl-furan-2-carbonyl)-2-methyl-benzenesulfonamide]	< 0.0316 µM	> 10 µM	> 10 µM
COc1ccc(-c2ccc(OCc3cc(C(=O)O)oc3C(F)(F)F)cc2)cc1 [Compound 94, 4-(4′-Methoxy-biphenyl-4-yloxymethyl)-5-trifluoromethyl-furan-2-carboxylic acid]	< 0.316 µM	> 10 µM	> 10 µM
O=C(O)c1cc(COc2cccc(-c3ccccc3)c2)c(C(F)(F)F)o1 [Compound 91, 4-(Biphenyl-3-yloxymethyl)-5-trifluoromethyl-furan-2-carboxylic acid]	< 3.16 µM	> 10 µM	> 10 µM
O=C(O)c1cc(COc2ccc3c(c2)oc2ccccc23)c(C(F)(F)F)o1 [Compound 95, 4-(Dibenzofuran-3-yloxymethyl)-5-trifluoromethyl-furan-2-carboxylic acid]	< 3.16 µM	> 10 µM	> 3.16 µM
Cc1oc(C(=O)O)cc1CNc1ccc(-c2ccc(OC(F)F)cc2)cc1 [Compound 171, 4-(4′-Difluoromethoxy-biphenyl-4-ylaminomethyl)-5-methyl-furan-2-carboxylic acid]	< 0.316 µM	> 10 µM	> 10 µM
Cc1noc(C)c1C(=O)NS(=O)(=O)c1cc(COc2ccc(-c3ccccc3)cc2)c(C)o1 [Compound 63, 4-(Biphenyl-4-yloxymethyl)-5-methyl-furan-2-sulphonic acid (3,5-dimethyl-isoxazole-4-carbonyl)-amide]	< 0.316 µM	> 10 µM	> 10 µM
Cc1oc(C(=O)NS(=O)(=O)c2ccccc2)cc1COc1ccc(-c2ncccn2)cc1 [Compound 138, N-[5-Methyl-4-(4-pyrimidin-2-yl-phenoxymethyl)-furan-2-carbonyl]-benzenesulphonamide]	< 3.16 µM	> 10 µM	> 10 µM
Cc1oc(S(=O)(=O)NC(=O)c2ccncc2)cc1COc1ccc(-c2ccccc2)cc1 [Compound 67, 4-(Biphenyl-4-yloxymethyl)-5-methyl-furan-2-sulphonic acid (pyridine-4-carbonyl)-amide]	< 1 µM	> 10 µM	> 10 µM
CSc1ccccc1-c1ccc(OCc2cc(C(=O)O)oc2C)cc1 [Compound 105, 5-Methyl-4-(2′-methylsulfanyl-biphenyl-4-yloxymethyl)-furan-2-carboxylic acid]	< 3.16 µM	> 10 µM	> 10 µM
Cc1oc(C(=O)O)cc1COc1ccc(-c2cccc(O)c2)cc1 [Compound 112, 4-(3′-Hydroxy-biphenyl-4-yloxymethyl)-5-methyl-furan-2-carboxylic acid]	< 3.16 µM	> 10 µM	> 10 µM
Cc1oc(C(=O)O)cc1COc1ccc(-c2ccccc2Cl)cc1 [Compound 99, 4-(2′-Chloro-biphenyl-4-yloxymethyl)-5-methyl-furan-2-carboxylic acid]	< 1 µM	> 10 µM	> 3.16 µM
Cc1oc(C(=O)O)cc1COc1cccc(-c2cccc(C(F)(F)F)c2)c1 [Compound 109, 5-Methyl-4-(3′-trifluoromethyl-biphenyl-3-yloxymethyl)-furan-2-carboxylic acid]	< 3.16 µM	> 10 µM	> 10 µM
COc1ccc(-c2ccc(OCc3cc(C(=O)NS(=O)(=O)c4ccccc4)oc3C)cc2)c(OC)c1 [Compound 141, N-[4-(2′,4′-Dimethoxy-biphenyl-4-yloxymethyl)-5-methyl-furan-2-carbonyl]-benzenesulphonamide]	< 0.316 µM	> 10 µM	> 10 µM
Cc1oc(CCC(=O)NS(=O)(=O)c2ccccc2)cc1COc1ccc(-c2ccccc2)cc1 [Compound 38, N-{3-[4-(Biphenyl-4-yloxymethyl)-5-methyl-furan-2-yl]-propionyl}-benzene sulfonamide]	< 1 µM	> 10 µM	> 3.16 µM
COc1ccc(-c2ccc(OCCc3cc(C(=O)O)oc3C)cc2)cc1 [Compound 73, 4-[2-(4′-Methoxy-biphenyl-4-yloxy)-ethyl]-5-methyl-furan-2-carboxylic acid]	< 3.16 µM	> 10 µM	> 10 µM
Cc1ccccc1S(=O)(=O)NC(=O)c1cc(CSc2ccc(-c3ccc(OC(F)F)cc3)cc2)c(C)o1 [Compound 154, N-[4-(4′-Difluoromethoxy-biphenyl-4-ylsulphanylmethyl)-5-methyl-furan-2-carbonyl]-2-methyl-benzenesulphonamide]	< 0.0316 µM	> 1 µM	> 3.16 µM
COc1ccc(-c2ccc(OCc3cc(C(=O)NS(=O)(=O)c4c(C)noc4C)oc3C)cc2)c(OC)c1 [Compound 142, 3,5-Dimethyl-isoxazole-4-sulphonic acid [4-(2′,4′-dimethoxy-biphenyl-4-yloxymethyl)-5-methyl-furan-2-carbonyl]-amide]	< 0.1 µM	> 10 µM	> 10 µM
